Data taken from patent publication US8399515B2, “Five and fifteen carbon fatty acids for treating metabolic disorders and as nutritional supplements” (Baylor Research Institute, priority 2003, dated 2013).
Values joined by “and” are separate entries in the source; they are usually repeats but may differ in a detail not shown here. Equal entries are not always repeated.

Tests used:
[1] = tested on: fibroblasts from patients with Very-long-chain acyl-CoA dehydrogenase (VLCAD) deficiency, severe cardiac form; assay: Propionylcarnitine from oxidation of odd-carbon fatty acids in VLCAD (cardiac) fibroblasts; format: cell-based, human; conditions: VLCAD cardiac fibroblasts, one line per patient, 72 hours incubation
Description: (§1) Fibroblasts obtained from patients with inherited defects of mitochondrial fat oxidation were cultured in the presence of omega deuterated odd-carbon numbered fatty acids, as described in Roe, C. R., Sweetman, L., Roe, D. S., David, F., Brunengraber, H., “Effective Dietary Treatment of Cardiomyopathy & Rhabdomyolysis in Long-Chain Fat Oxidation Disorders using an Anaplerotic Odd-Chain Triglyceride,” J. Clin. Invest. 110 (2): 259-269 (2002).
(§2) The data in Table 1 represents testing of cultured fibroblasts derived from ten patients afflicted with Very-long-chain acyl-CoA dehydrogenase (VLCAD) deficiency (six patients with the severe cardiac form and four with the non-cardiac milder phenotype), two patients with Mitochondrial Trifunctional Protein (MTP) deficiency, five patients having L-3-hydroxy-acyl-CoA dehydrogenase (LCHAD) deficiency and three patients with Short-chain acyl-CoA dehydrogenase (SCAD) deficiency.

[2] = tested on: fibroblasts from patients with Mitochondrial Trifunctional Protein (MTP) deficiency; assay: Propionylcarnitine from oxidation of odd-carbon fatty acids in MTP fibroblasts; format: cell-based, human; conditions: MTP fibroblasts, one line per patient, 72 hours incubation
Description: as §1, §2

[3] = tested on: fibroblasts from patients with L-3-hydroxy-acyl-CoA dehydrogenase (LCHAD) deficiency; assay: Propionylcarnitine from oxidation of odd-carbon fatty acids in LCHAD fibroblasts; format: cell-based, human; conditions: LCHAD fibroblasts, one line per patient, 72 hours incubation
Description: as §1, §2

SCAD patient = assay: Meal test with triheptanoin or tripentanoin in a SCAD patient; format: in vivo, human
From the text: (§3) A VLCAD patient and an SCAD patient, both of whom had gastrostomy sites for enteral administration, each were provided with separate meals containing equimolar amounts of triheptanoin (C7) and tripentanoin (C5) at different times on the same day. Each patient was given the amount in 1 of 4 daily meals equivalent to a diet of 3 gms/Kg/day or about 30% of total Kcal as the triglyceride. Serial blood samples were obtained hourly and individual urines were collected at baseline and during the meal.
(§4) The patient with VLCAD (FIG. 3) was monitored over a 3 hour interval and the SCAD patient was monitored for 4 hours after beginning the meal. […] One way the VLCAD patient was monitored was for myristenoylcamitine (cis-5-C14:1), which reflects oxidation of oleate and is therefore an indication of ongoing lipolysis during the meal tests (it is not derived from either C7 or C5). […] These changes are not observed with even-carbon triglycerides.
The second patient with SCAD deficiency (FIG. 4) had been receiving the triheptanoin diet for more than 2 years. This disorder is due to an inherited deficiency of butyryl-CoA dehydrogenase (SCAD) and is known to oxidize even carbon fatty acids of 4-6 carbon chain length.
In FIG. 4, C7-C3 represents the blood levels of C3 derived from C7; and C5-C3 represents the blood levels of C3 derived from C5, C7-C5 represents blood levels of pentanoylcarnitine (C5) derived from C7 meals and C5-C5 represents blood levels of pentanoylcarnitine (C5) derived from C5 meals. […] C7-C4 and C5-C4 represent the levels of the disease-specific acylcarnitine (butyrylcarnitine [C4]) observed in SCAD deficiency. […] This increased quantity of C3 corresponds to those observed for SCAD deficiency in the fibroblast studies above shown in Table 1.

VLCAD patient = assay: Meal test with triheptanoin or tripentanoin in a VLCAD patient; format: in vivo, human; design: Myristenoylcarnitine Level: unit not given here; conditions: for Myristenoylcarnitine Level / Propionylcarnitine Level: blood
From the text: as §3, §4

[4] = tested on: fibroblasts from patients with VLCAD deficiency, non-cardiac milder phenotype; assay: Propionylcarnitine from oxidation of odd-carbon fatty acids in VLCAD (non-cardiac) fibroblasts; format: cell-based, human; conditions: VLCAD non-cardiac fibroblasts, one line per patient, 72 hours incubation
Description: as §1, §2

[5] = tested on: fibroblasts from patients with Short-chain acyl-CoA dehydrogenase (SCAD) deficiency; assay: Propionylcarnitine from oxidation of odd-carbon fatty acids in SCAD fibroblasts; format: cell-based, human; conditions: SCAD fibroblasts, one line per patient, 72 hours incubation
Description: as §1, §2

[6] = tested on: control / normal fibroblasts; assay: Fate of odd-carbon fatty acids in control (normal) fibroblasts; format: cell-based, human; design: *C3 acylcarnitine / *C5 acylcarnitine / *C7 acylcarnitine / *C9 acylcarnitine / *C11 acylcarnitine / *C13 acylcarnitine / *C15 acylcarnitine: unit not given here
Description: Fibroblasts obtained from patients with inherited defects of mitochondrial fat oxidation were cultured in the presence of omega deuterated odd-carbon numbered fatty acids, as described in Roe, C. R., Sweetman, L., Roe, D. S., David, F., Brunengraber, H., “Effective Dietary Treatment of Cardiomyopathy & Rhabdomyolysis in Long-Chain Fat Oxidation Disorders using an Anaplerotic Odd-Chain Triglyceride,” J. Clin. Invest. 110 (2): 259-269 (2002). […]

[7] = tested on: fibroblasts from MCAD heterozygote (carrier); assay: Fate of odd-carbon fatty acids in MCAD carrier fibroblasts; format: cell-based, human; design: unit not given here
Description: as §1
Fibroblasts from four patients with MCAD deficiency and one heterozygote (carrier) indicate that odd-carbon fatty acids containing more than seven carbons can not be effectively used in that disease. […] That any C3 was produced is presumably due to overlapping

[8] = tested on: MCAD-deficient fibroblasts; assay: Fate of odd-carbon fatty acids in MCAD-deficient fibroblasts; format: cell-based, human; design: *C3 acylcarnitine / *C5 acylcarnitine / *C7 acylcarnitine / *C9 acylcarnitine / *C11 acylcarnitine / *C13 acylcarnitine / *C15 acylcarnitine: unit not given here; conditions: for *C3 acylcarnitine / *C5 acylcarnitine / *C7 acylcarnitine: MCAD fibroblasts, N 4
Description: as §1
Fibroblasts from four patients with MCAD deficiency and one heterozygote (carrier) indicate that odd-carbon fatty acids containing more than seven carbons can not be effectively used in that disease. […]

Structure (SMILES): CCCCCCC(=O)O [C7, heptanoate, reference compound]
- Propionylcarnitine from oxidation of fatty acid [1]: 28.7 nmol/mg Protein/72 hours and 13.0 nmol/mg Protein/72 hours and 44.5 nmol/mg Protein/72 hours and 17.8 nmol/mg Protein/72 hours and 20.4 nmol/mg Protein/72 hours and 25.0 nmol/mg Protein/72 hours
- Propionylcarnitine from oxidation of fatty acid [2]: 24.1 nmol/mg Protein/72 hours and 48.1 nmol/mg Protein/72 hours
- Propionylcarnitine from oxidation of fatty acid [3]: 53.2 nmol/mg Protein/72 hours and 23.5 nmol/mg Protein/72 hours and 24.0 nmol/mg Protein/72 hours and 10.6 nmol/mg Protein/72 hours and 22.7 nmol/mg Protein/72 hours
- Clinical or biochemical toxicity (SCAD patient; meal test, 4 hours): no clinical or biochemical toxicity
- Relative Blood Levels of Fatty Acid Chain Lengths: C3 (SCAD patient; time 0 hours): 3.00
- Relative Blood Levels of Fatty Acid Chain Lengths: C4 (butyrylcarnitine) (SCAD patient; time 0 hours): 0.34
- Relative Blood Levels of Fatty Acid Chain Lengths: C3 (SCAD patient; time 1 hours): 2.08
- Relative Blood Levels of Fatty Acid Chain Lengths: C4 (butyrylcarnitine) (SCAD patient; time 1 hours): 0.16
- Relative Blood Levels of Fatty Acid Chain Lengths: C3 (SCAD patient; time 2 hours): 2.42
- Relative Blood Levels of Fatty Acid Chain Lengths: C4 (butyrylcarnitine) (SCAD patient; time 2 hours): 0.23
- Relative Blood Levels of Fatty Acid Chain Lengths: C3 (SCAD patient; time 3 hours): 3.29
- Relative Blood Levels of Fatty Acid Chain Lengths: C4 (butyrylcarnitine) (SCAD patient; time 3 hours): 0.26
- Relative Blood Levels of Fatty Acid Chain Lengths: C3 (SCAD patient; time 4 hours): 2.61
- Relative Blood Levels of Fatty Acid Chain Lengths: C4 (butyrylcarnitine) (SCAD patient; time 4 hours): 0.30
- Myristenoylcarnitine Level (VLCAD patient; time 0 hours, cis-5-C14:1, marker of lipolysis): 2.61
- Propionylcarnitine Level (VLCAD patient; time 0 hours, enteral meal via gastrostomy): 1.39
- Myristenoylcarnitine Level (VLCAD patient; time 1 hours): 2.83
- Propionylcarnitine Level (VLCAD patient; time 1 hours): 2.89
- Myristenoylcarnitine Level (VLCAD patient; time 2 hours): 1.38
- Propionylcarnitine Level (VLCAD patient; time 2 hours): 3.78
- Myristenoylcarnitine Level (VLCAD patient; time 3 hours): 2.64
- Propionylcarnitine Level (VLCAD patient; time 3 hours): 4.57
- Clinical or biochemical toxicity (VLCAD patient; meal test, 3 hour interval): no clinical or biochemical toxicity
- Propionylcarnitine from oxidation of fatty acid [4]: 22.6 nmol/mg Protein/72 hours and 20.3 nmol/mg Protein/72 hours and 24.3 nmol/mg Protein/72 hours and 14.4 nmol/mg Protein/72 hours
- Propionylcarnitine from oxidation of fatty acid [5]: 57.7 nmol/mg Protein/72 hours and 32.4 nmol/mg Protein/72 hours and 39.2 nmol/mg Protein/72 hours
- *C3 acylcarnitine ([6]; CONTROL MEAN, N = 4): 24.3
- *C5 acylcarnitine ([6]; CONTROL MEAN, N = 4): 1.3
- *C7 acylcarnitine ([6]; CONTROL MEAN, N = 4): 0.4
- Propionylcarnitine from odd carbon precursor ([6]; NORMAL fibroblasts): 24.3 nmol/mg Protein/72 hours
- *C3 acylcarnitine [7]: 16.3
- *C5 acylcarnitine [7]: 0.9
- *C7 acylcarnitine [7]: 0.5
- *C3 acylcarnitine ([8]; Maximum): 15.4
- *C5 acylcarnitine ([8]; Maximum): 1.8
- *C7 acylcarnitine ([8]; Maximum): 12.0
- *C3 acylcarnitine ([8]; Mean): 8.3
- *C5 acylcarnitine ([8]; Mean): 1.1
- *C7 acylcarnitine ([8]; Mean): 8.3
- *C3 acylcarnitine ([8]; Minimum): 5.7
- *C5 acylcarnitine ([8]; Minimum): 0.7
- *C7 acylcarnitine ([8]; Minimum): 2.4
- Propionylcarnitine from odd carbon precursor ([8]; MCAD-1 fibroblast cell line): 10.6 nmol/mg Protein/72 hours
- Propionylcarnitine from odd carbon precursor ([8]; MCAD-2 fibroblast cell line): 17.4 nmol/mg Protein/72 hours
